From patent publication US20250073244A1, “CRYSTALLINE FORMS OF PENTAAZA MACROCYCLIC RING COMPLEX” (Galera Labs, LLC, priority 2023, published 2025)

How the values were obtained:
[1] = Crystallization at room temperature by slow evaporation
Procedure: Combined with approximate solubility experiment, solubility samples were filtered by 0.45 μm nylon filter. Obtained solutions were slow evaporated at ambient condition. Solid residues were examined for their polymorphic form (Table 34).
Scale up: About 200 mg of drug substance will be dissolved in EtOAc. Obtained solutions shall be exposed to ambient condition (protected by N2) to allow slow evaporation of solvents (Table 35).

[2] = Precipitation by addition of anti-solvent; conditions: anti-solvent Heptane
Procedure: About 50 mg of drug substance was dissolved in a good solvent. Anti-solvent was added into the obtained solutions slowly. Precipitates were collected by filtration. The solid part (wet cake) was investigated by XRPD. When differences were observed, additional investigations were performed (e.g. DSC, TGA. FT-IR, PLM/SEM, etc.).
Scale up: About 200 mg of drug substance was dissolved in EtOAc. Heptane was added to the obtained solutions. The solid part (wet cake) was investigated by XRPD. When differences were observed, additional investigations were performed (e.g. DSC, TGA. FT-IR, PLM/SEM, etc.)

[3] = Crystallization from hot saturated solutions by fast cooling; conditions: fast cooling from 50° C. (ice bath); MEK; yellow solid
Procedure: (§1) Approximate 100 mg of drug substance was dissolved in the minimal amount of selected solvents at 50° C. Obtained solutions were put into an ice bath. Precipitates were collected by filtration. The solid part (wet cake) was investigated by XRPD. When differences were observed, additional investigations were performed (e.g. DSC, TGA. FT-IR, PLM/SEM, etc.). When no precipitation was obtained, the solutions were put in −20° C. freezer for crystallization.

[4] = Equilibration with solvents at 25° C.
Procedure: About 50 mg of drug substance was equilibrated in suitable amount of solvent at 25° C. for 2 weeks with a stirring plate (Table 30). Obtained suspension was filtered. The solid part (wet cake) was investigated by XRPD. When differences were observed, additional investigations were performed (e.g. DSC, TGA. FT-IR, PLM/SEM, etc.).
[…] The solid part (wet cake) was investigated by XRPD. If differences are observed, additional investigation will be performed (e.g. DSC, TGA, HPLC, etc.)

[5] = Scale up experiment of Pattern A and Pattern D; conditions: Slow cooling, MEK
Procedure: About 6 g API were used for Pattern A and Pattern D scale up.
Obtained suspension was filtered. The solid part (wet cake) was investigated by XRPD.
About 3 g drug substance were equilibrated in 8 mL of solvent (Water: Acetone, 10:90, v:v) at 25° C. for 1 week with a stirring plate. Obtained suspension was filtered. The solid part (wet cake) was investigated by XRPD.

[6] = Crystallization from hot saturated solutions by slow cooling; conditions: slow cooling 50° C. to 5° C. at 0.1° C./min
Procedure: as §1, with “cooled to 5° C. at 0.1° C./min.” for “put into an ice bath.”, “etc.).” for “etc.). When no precipitation was obtained, the solutions were put in −20° C. freezer for crystallization.”
Scale up: About 200 mg of drug substance will be dissolved in MEK. Obtained solutions will be applied with cooling rate of 0.1° C./min for slow cooling.

[7] = Water activity study at 25° C. (acetone/water); assay type: physicochemical; conditions: Acetone & water, protected by N2, 5 days
Procedure: Water activity experiments were conducted at 25° C. in 10 different water activities with 1 set of organic solvent/water mixtures (acetone/water) to determine critical water activity between anhydrate and hydrate.

[8] = 2 weeks, Heptane/Acetone, 80/20
[9] = 5 days, protected by N2, Acetone
[10] = 5 days, protected by N2, Heptane
[11] = 5 days, protected by N2, Toluene

CCC(=O)[O][Mn][O]C(=O)CC.c1cc2nc(c1)CN[C@H]1CCCC[C@@H]1NCCN[C@H]1CCCC[C@@H]1NC2 [API]
Comments ([1]; protect with N2, 1,4-Dioxane): API degradation, purity | purity ([1]; protect with N2, 1,4-Dioxane): 97.76% | Comments ([1]; protect with N2, ACN): API degradation, purity | purity ([1]; protect with N2, ACN): 98.98% | purity ([1]; protect with N2, Acetone): Purity 99.39% | purity ([1]; protect with N2, DCM): Purity 99.93% | purity ([1]; protect with N2, EtOAc): Purity 99.42% | purity ([1]; protect with N2, Ethanol): Purity 99.65% | purity ([1]; protect with N2, IPA): Purity 99.63% | purity ([1]; protect with N2, IPAC): Purity 99.90% | purity ([1]; protect with N2, MEK): Purity 99.33% | purity ([1]; protect with N2, MTBE): Purity 99.88% | purity ([1]; protect with N2, Methanol): Purity 99.92% | purity ([1]; protect with N2, THF): Purity 99.12% | Comments ([1]; protect with N2, Toluene): API degradation, purity | purity ([1]; protect with N2, Toluene): 96.47% | purity ([2]; solvent Acetone): purity 99.93% | purity ([2]; solvent EtOAc): purity 99.95% | purity [3]: Yellow solid, 94.19% | Comments ([4]; 2 weeks, EtOAc): API degradation, | purity ([4]; 2 weeks, EtOAc): purity 75.69% | purity ([4]; 2 weeks, Heptane): Purity 99.02% | Comments [4, 8]: API degradation, | purity [4, 8]: purity 94.83% | Comments ([4]; 2 weeks, Heptane/EtOAc, 80/20): API degradation, | purity ([4]; 2 weeks, Heptane/EtOAc, 80/20): purity 92.64% | Comments ([4]; 2 weeks, IPAC): API degradation, | purity ([4]; 2 weeks, IPAC): purity 84.49% | Comments ([4]; 2 weeks, MTBE): API degradation, | purity ([4]; 2 weeks, MTBE): purity 88.12% | Comments ([4]; 2 weeks, MTBE/Acetone, 80/20c): API degradation, | purity ([4]; 2 weeks, MTBE/Acetone, 80/20c): purity 87.39% | Comments ([4]; 2 weeks, MTBE/EIOAc, 80/20): API degradation, | purity ([4]; 2 weeks, MTBE/EIOAc, 80/20): purity 89.32% | Comments [4, 9]: API degradation | purity [4, 9]: 98.41% | Comments ([4]; 5 days, protected by N2, EtOAc): API degradation | purity ([4]; 5 days, protected by N2, EtOAc): 97.78% | Comments [4, 10]: API degradation | purity [4, 10]: 99.85% | Comments ([4]; 5 days, protected by N2, IPAC): API degradation | purity ([4]; 5 days, protected by N2, IPAC): 98.30% | Comments ([4]; 5 days, protected by N2, MEK): API degradation | purity ([4]; 5 days, protected by N2, MEK): 97.52% | Comments ([4]; 5 days, protected by N2, MTBE): API degradation | purity ([4]; 5 days, protected by N2, MTBE): 98.62% | Comments [4, 11]: API degradation | purity [4, 11]: 92.88% | Comments [5]: API degradation, purity | purity [5]: 93.4% | Comments ([6]; Acetone): API was soluble in the solvent | purity ([6]; EtOAc): White solid, purity 100% | Comments ([6]; IPA): API was soluble in the solvent | Comments ([6]; IPAC): API was soluble in the solvent | purity ([6]; MEK): White solid, purity 100% | Comments ([6]; Water): API was soluble in the solvent | Comments ([7]; a.w. 0): API degradation | purity ([7]; a.w. 0): 97.34% | XRPD ([7]; a.w. 0.103): Pattern A | purity ([7]; a.w. 0.103): Purity 98.27% | XRPD ([7]; a.w. 0.206): Pattern A | purity ([7]; a.w. 0.206): Purity 99.18% | XRPD ([7]; a.w. 0.301): Pattern D | purity ([7]; a.w. 0.301): Purity 99.77% | XRPD ([7]; a.w. 0.400): Pattern D | purity ([7]; a.w. 0.400): Purity 99.49% | XRPD ([7]; a.w. 0.501): Pattern D | purity ([7]; a.w. 0.501): Purity 99.33% | XRPD ([7]; a.w. 0.603): Pattern D | purity ([7]; a.w. 0.603): Purity 99.19% | Comments ([7]; a.w. 0.703): Clear solution | Comments ([7]; a.w. 0.803): Clear solution | Comments ([7]; a.w. 0.901): Clear solution
